Where two headings read alike, the source gives them in different places.
Experiments:
HCT 116 cells = conditions: Zeng et al. 2010; cited from earlier work
HME = test: Cell growth inhibition, crystal violet cell viability assay (control cells); format: cell-based; conditions: read-out: Cell Growth Inhibition GI50, HME
Method: (§1) Comparative analysis of the cytotoxic effect of largazole in human cancer cell lines HCT116, SW480 and MDA-MB231. HME were used as control. 8,000 cells were plated in 96-well plates where rows 1 and 10 were treated with DMSO, row 2 had no cells to establish background levels, rows 3-9 contained decreasing concentrations of compound. Cells were incubated with largazole for 48 hours, followed by staining with crystal violet dye. The absorbance at 588 nm was measured using a Tecan Sail re II plate reader. Experiments were performed in replicates of six, and concentration-response curves were generated by nonlinear least square regression analysis of the data using GraphPad Prism (San Diego, Calif.). The growth inhibition (GI50) for each compound was defined as a concentration of drug leading to a 50% reduction in A588 compared with controls
SW480, HCT116, and MDA-MB231 cell lines were purchased from the American Tissue Culture Collection. SW480 and MDA-MB231 cells were grown in Dulbecco's modified Eagle's medium supplemented with 10% fetal calf serum at 37° C. in a humidified 5% CO2 atmosphere. The HCT116 cell line was cultured in McCoy's 5a medium [ATCC; Cat. No. 30-2007] with 1.5 mM L-glutamine and 10% fetal bovine serum [ATCC; Cat. No. 30-2020]. […]
(§2) 8,000 cells from different cancers were plated in flat-bottomed 96-well microplates. […] Cell viability was determined 48 hours later using crystal violet dye (Sigma-Aldrich), which was solubilized in ethanol, and absorbance was measured at 588 nm using a Tecan Sail re II plate reader. […]
as §2, with “cancer or nontransformed cells” for “cancers”, “Safire” for “Sail re”

HCT-116 = test: Cell growth inhibition, crystal violet cell viability assay; format: cell-based; conditions: Homo sapiens, read-out: Cell Growth Inhibition GI50, HCT-116
Method: as §1
(§3) SW480, HCT116, and MDA-MB231 cell lines were purchased from the American Tissue Culture Collection. SW480 and MDA-MB231 cells were grown in Dulbecco's modified Eagle's medium supplemented with 10% fetal calf serum at 37° C. in a humidified 5% CO2 atmosphere. The HCT116 cell line was cultured in McCoy's 5a medium [ATCC; Cat. No. 30-2007] with 1.5 mM L-glutamine and 10% fetal bovine serum [ATCC; Cat. No. 30-2020]. HME cells (Clonetics, San Diego, Calif.; donor 4144) were cultured serum-free in Clonetics' recommended medium and supplements (52 μg/ml bovine pituitary extract, 0.5 μg/ml hydrocortisone, 0.01 μg/ml human epidermal growth factor, 5 μg/ml insulin, 50 μg/ml gentamicin and 50 ng/ml amphotericin-B).
(§4) 8,000 cells from different cancers were plated in flat-bottomed 96-well microplates. (Background control wells lacking the cells but containing the same volume of media were included in each assay plate). 24 hours after seeding, new media was added. To assess the in vitro cytotoxicity, each compound was dissolved in DMSO and prepared immediately before the experiments and was diluted into complete medium before addition to cell cultures. Test compounds were then added to the culture medium for designated decreasing concentrations (600 nM to 10 nM). Cell viability was determined 48 hours later using crystal violet dye (Sigma-Aldrich), which was solubilized in ethanol, and absorbance was measured at 588 nm using a Tecan Sail re II plate reader. Experiments were performed in replicates of six, and concentration-response curves were generated by nonlinear least square regression analysis of the data using GraphPad Prism (San Diego, Calif.). The growth inhibition (GI50) for each compound was defined as a concentration of drug leading to a 50% reduction in A588 compared with controls.
as §4, with “cancer or nontransformed cells” for “cancers”, “Safire” for “Sail re”, “concentration—response” for “concentration-response”

MDA-MB231 = test: as above; format: cell-based; conditions: Homo sapiens, read-out: Cell Growth Inhibition GI50, MDA-MB231
Method: as §1, §3, §4
as §4, with “cancer or nontransformed cells” for “cancers”, “Safire” for “Sail re”, “concentration—response” for “concentration-response”

HCT116 cells [1] = test: DNA microarray gene expression profiles; format: cell-based, human; conditions: SAHA (200 μM), Largazole (20 nM), Example 1 (20 nM)
Method: FIG. 9A illustrates hierarchical clustering and heatmaps of changes in gene expression profiles in the HCT116 cells with indicated treatment. FIGS. 9B and 9C illustrate Venn diagrams showing unique and shared gene sets whose expression levels changed by more than 2 fold upon exposure to the indicated treatment at 6 hr (FIG. 9B) and 24 hr (FIG. 9C).
Expression values files for each sample were generated using the Robust Multichip Average (RMA) algorithm. Differential expression was determined using the R software package limma to generate linear models and empirical Bayesian statistics. Genes were considered differentially expressed if the P value, adjusted for multiple testing using the Benjamini and Hochberg method, was ≦5% and the log-2 fold change was […].
HCT116 cells were seeded in triplicate at approximately 60% confluency. […] Cells were incubated for 6 or 24 hours followed by a wash with phosphate-buffered saline. Total RNA was extracted using a RNeasy Mini RNA extraction kit (QIAGEN Inc., Valencia, Calif.) immediately after wash. Total RNA concentration was determined using a Lambda 800 UV/VIS spectrometer (PerkinElmer, Waltham, Mass.) and processed for labeling hybridization, wash, and scan at University of Colorado-Denver Health Sciences Center. Three GeneChip® Human Gene 1.0 ST (Affymetrix, Santa Clara, Calif.) arrays were used for each of the time points, cell types, and treatments for a total of 24 arrays. Expression values files for each sample were generated using the Robust Multichip Average (RMA) algorithm. Differential expression was determined using the R software package limma to generate linear models and empirical Bayesian statistics. Genes were considered differentially expressed if the P value, adjusted for multiple testing using the Benjamini and Hochberg method, was ≦5% and the log-2 fold change was […]. GeneSpring GX (Agilent, Santa Clara, Calif.) software was used for hierarchical clustering and generating heatmaps.

HCT116 cells [2] = conditions: Ying et al. 2008b, read-out: GI50, antigrowth activity; cited from earlier work
HDAC = conditions: read-out: IC50, HDAC inhibition in treated cells; cells treated with compound; Ying et al. 2008a; cited from earlier work
melanoma cell lines = conditions: series of melanoma cell lines; Bowers et al. 2008; cited from earlier work
[3] = test system: acetylated histone H3 in HCT116 cells; test: Western blot of histone H3 hyperacetylation; format: cell-based, human; conditions: 8 hours, concentrations ranging from 1/μM to 100 nM
Method: Cell extracts were separated via SDS-PAGE electrophoresis and the resulting bands were detected utilizing anti-acetyl-H3 antibodies. DMSO-treated cells serve as a negative control, while the expression of GAPDH was used to show equal loading. […] Cells were treated with the indicated compound for 8 hours with concentrations ranging from 1/μM to 100 nM and immunoblotted with anti-acetylhistone H3 antibody.
For western blot analysis, total protein extracts were prepared by lysing cells in lysis buffer (50 mM Tris-Cl [pH 8.0], 5 mM EDTA, 150 mM NaCl, 1% NP-40, 0.1% SDS, and 1 mM phenylmethylsulfonyl fluoride). 50 μg of total soluble proteins were separated by SDS-PAGE. Proteins were transferred to nitrocellulose membrane and the membrane was blocked for 1 hour with 4% nonfat milk, followed by overnight incubation at 4° C. with primary antibodies against acetylated histone H3 (1:1000, Upstate, #06-599), Ezrin (1:10000, Sigma, E-8897), Glyceraldehyde 3-phosphate dehydrogenase (GAPDH; 1:20000, Santa Cruz, sc-47724), histone H3 (H3; 1:1000, Santa Cruz, sc-8654). Membranes were then incubated with peroxidase conjugated secondary antibodies for one hour at room temperature. Detection was performed using Super Signal WestDura. The expression of Ezrin and GAPDH was used as loading control.

[4] = HME control cells, 48 hours, crystal violet, A588
[5] = HCT-116, 48 hours, crystal violet, A588
[6] = MDA-MB-231, MDA-MB231, 48 hours, crystal violet, A588

Molecule	GI50 (HCT 116 cells)	GI50 (HME; [4])	GI50 (HCT-116; [5])	GI50 (MDA-MB231; [6])	# of Genes 2 Fold-Change in comparison to DMSO control (HCT116 cells [1]; 6 hr)	# of Genes 2 Fold-Change in comparison to DMSO control (HCT116 cells [1]; 24 hr)	further results
CCCCCCCC(=O)SCCC=CC1CC(=O)NCc2nc(cs2)C2=NC(C)(CS2)C(=O)NC(Cc2ccccc2)C(=O)O1 (stereo not shown) [Phe 1]	260 nM	–	–	–	–	–	–
CCCCCCCC(=O)SCC/C=C/[C@@H]1CC(=O)NCc2nc(co2)C(=O)NC(C)(C)C(=O)N[C@@H](C)C(=O)O1 [Example 4, S-(E)-4-((7S,10S)-4,4,7-trimethyl-2,5,8,12-tetraoxo-9,16-dioxa-3,6,13,18-tetraazabicyclo[13.2.1]octadeca-1(17),15(18)-dien-10-yl)but-3-enyl octanethioate]	–	≥ 600 nM	17 nM	53 ± 3 nM	–	–	–
CCCCCCCC(=O)SCC/C=C/[C@@H]1CC(=O)NCc2nc(cs2)C2=N[C@@](C)(CS2)C(=O)N[C@@H](C(C)C)C(=O)O1 [Largazole]	–	–	–	–	529	566	GI50 (HME; 48 h): ≥ 600 nM; GI50 (HCT-116; HCT-116, 48 h): 28 nM; GI50 (MDA-MB231; MDA-MB-231, 48 h): 71 ± 8 nM
largazole thiol	–	–	–	–	–	–	GI50 (HCT116 cells [2]): 38 nM; IC50 (HDAC): 209 nM; IC50 (melanoma cell lines): 380 to 2600 nM
CCCCCCCC(=O)SCC/C=C/[C@@H]1CC(=O)NCc2nc(cs2)C(=O)NC(C)(C)C(=O)N[C@@H](C(C)C)C(=O)O1 [Example 1, S-(E)-4-((7S,10S)-7-isopropyl-4,4-dimethyl-2,5,8,12-tetraoxo-9-oxa-16-thia-3,6,13,18-tetraazabicyclo[13.2.1]octadeca-1(17),15(18)-dien-10-yl)but-3-enyl octanethioate]	–	≥ 600 nM	16 ± 2 nM	53 nM	421	174	Deacetylase inhibition, dose response of H3 acetylation (FIG. 8B) [3]: slightly more potent deacetylase inhibitors than largazole (L) and SAHA
CCCCCCCC(=O)SCCC=CC1CC(=O)NCc2nc(cs2)C2=NC(C)(CS2)C(=O)NC(CC(C)C)C(=O)O1 (stereo not shown) [Leu 1]	560 nM	–	–	–	–	–	–

Source: patent US9422340B2, “Macrocyclic compounds useful as inhibitors of histone deacetylases” (The Regents of the University of Colorado, A Body Corporate, priority 2010, dated 2016)
